{
  "source": "paper PMC10923054",
  "about": "“Antiplasmodial peptaibols act through membrane directed mechanisms” (Cell Chemical Biology, 2024)",
  "key": {"red blood cell (RBC)": {"system": "red blood cell (RBC)", "assay": "Percent hemolysis determination", "type": "cell-based, human", "conditions": "25 μM; RBCs in PBS, 1% hematocrit, 1 h, 37°C, absorbance 550 nm, 0.01% saponin control; biological triplicate", "procedure": "Hemolysis assay performed as outlined in Duvall et al. with some modifications.[63] Whole blood was first washed and resuspended in PBS to isolate RBCs. Compound was then added in serial dilutions to PBS with 1% hematocrit, with vehicle or 0.01% saponin used as controls. Plates were incubated for 1 h at 37°C then centrifuged for 10 min at 900 x g. Supernatant was then transferred to a clear plate and absorbance was read at 550 nm. Extended incubation with compound (up to 3 days) was performed during assay optimization, with no changes noted in percent hemolysis."}, "[1]": {"system": "digestive vacuole of functionally isolated 3D7 trophozoites", "assay": "FITC-dextran measurements of DV pH and membrane integrity", "type": "cell-based, P. falciparum", "conditions": "5 x EC50", "procedure": "Preloading of 3D7 parasites with FITC-dextran was done as outlined in Saliba et al.[68] In summary, 2.25 mL of pre-warmed lysis buffer (5 mM HEPES, 11 mM glucose, 2 mM MgCl2, 2 mM ATP, and 110 μM FITC-dextran, pH 7.4) was added to 1 mL of packed RBCs and incubated at 30°C for 10 min. After, 2.25 mL of resealing buffer (280 mM NaCl, 40 mM KCl, 11 mM glucose, and 1 mM HEPES, pH 7.4) was added and cells were pelleted at 1,200 x g for 5 min then washed 3 x in RPMI. FITC-dextran loaded RBCs were then resuspended with 1 mL of synchronous trophozoite stage parasites (10–20%) parasitemia, at 4% hematocrit. Cultures were maintained in 50 mL for a minimum of 2 life cycles, until parasitemia reached >15%.\nFor assay use, trophozoite stage parasites were functionally isolated as described by van Schalkwyk et al. and Kirk et al. with some modifications.[69]^,[70] Parasites were resuspended in warm media with 0.05% saponin then centrifuged immediately at 2,060 x g for 10 min. Cells were washed in RPMI media 3 x then resuspended in HEPES buffered saline (100 mM KCl, 30 mM NaCl, 2 mM MgCl2, and 5 mM HEPES, pH 7.3) at 5 x 10^6 cells/mL. […] Samples were collected at 0.5, 1, and 2 h for flow cytometry using a CytoFLEX S (Beckman Coulter, Brea, CA), excitation 488 nm, emissions 530 and 585 nm. Gating was performed in FlowJo Version 10 using FITC-dextran loaded and unloaded controls. The ratio (Rgy) of the fluorescent intensity values was then graphed using Graph Pad Prism Version 9. For microscopic analysis, samples were collected after 2 h of treatment and imaged on a Leica TCS SP5 II confocal microscope (Leica Microsystems, Wetzlar, DE.) at excitation 488, emission 520 nm with a 30 nm bandpass filter, then processed with LAS-X software. Significance determined using a one-way ANOVA multiple comparisons test in GraphPad Prism Version 9.0."}, "[2]": {"system": "HZ NPDG-I-resistant Dd2 clones (pfmdr1 mutants)", "type": "cell-based, P. falciparum", "conditions": "Figure S5; 72 h, SYTO 61 flow cytometry", "procedure": "Screening of HZ NPDG-I resistant clones was performed at 1% parasitemia, 0.2% hematocrit with flow cytometry in V-shaped 96-well plates. Briefly, compounds were subjected to a 3-fold serial dilution with the highest concentration set at 4 μM or 8 μM. Eleven dilution points were included in addition to no-drug controls. Three technical replicates were set up for each compound at each dilution point. The Dd2-B2 parent line, or the clonal line 1B2, 2B3, 3A3, or 1E2 were added at 0.4% hematocrit and 1% parasitemia to the diluted compounds at a 1:1 ratio. The plate was incubated at 37°C for 72 h in a chamber filled with a hypoxic gas mixture (3% oxygen, 5% carbon dioxide, and 92% nitrogen). After incubation, a blood pellet was formed at the bottom of each well of the 96-well plate. Supernatant was removed without disturbing the pellet, and 20 μl of SYTO 61(1:10,000 dilution; Thermo Fisher Scientific, Cat No. S11343) in PBS was added to each well and incubated for 15 mins at room temperature. The cells in each well were then diluted with 180 μl of PBS and subjected to flow cytometry for parasitemia determination using the HTS (High-Throughput Sampler) of BD FACSCanto II (BD Biosciences, NJ). Flow cytometry data was analyzed using FlowJo Version 10.4.0. Dose response curves were generated and IC50 values obtained with GraphPad Prism Version 9.1.1.\nA clone of the Dd2 strain (Dd2-B2) of P. falciparum was used for in vitro evolution of resistance against harzianin NPDG I. Three flasks of 1.2 x 10^8 parasites were continuously exposed to a stepwise-increasing concentration of the compound over ∼3 months starting from 20 nM up to a final concentration of 100 nM. Once a stable rightward shift in 72 h IC50 was observed, cultures were subjected to limiting dilution to obtained harzianin-resistant clones. Each clone was expanded, phenotyped to confirm resistance, and submitted for whole genome sequencing. An untreated flask of Dd2-B2 parasites was maintained in parallel throughout the course of in vitro selection as a control."}},
  "note": "Square brackets hold non-standard residues; d marks the D form. Peptide text beside a SMILES is read from it. Phe(ol) = N[C@H](CO)Cc1ccccc1; Aib = CC(C)(N)C(=O)O",
  "data": [
    {"smiles": "CC(=O)NC(C)(C)C(=O)N1CCC[C@H]1C(=O)NC(C)(C)C(=O)N[C@@H](C)C(=O)NC(C)(C)C(=O)N[C@@H](C)C(=O)N[C@@H](CCC(N)=O)C(=O)NC(C)(C)C(=O)N[C@H](C(=O)NC(C)(C)C(=O)NCC(=O)N[C@@H](CC(C)C)C(=O)NC(C)(C)C(=O)N1CCC[C@H]1C(=O)N[C@H](C(=O)NC(C)(C)C(=O)NC(C)(C)C(=O)N[C@@H](CCC(=O)O)C(=O)N[C@@H](CCC(N)=O)C(=O)N[C@H](CO)Cc1ccccc1)C(C)C)C(C)C", "note": "[Alamethicin, reference compound] (Ac-[Aib]P[Aib]A[Aib]AQ[Aib]V[Aib]GL[Aib]PV[Aib][Aib]EQ[Phe(ol)]; N-terminus assumed)", "values": [
      {"measurement": "hemolysis at 25 μM", "setting": "red blood cell (RBC)", "result": 73, "unit": "%"},
      {"measurement": "pH dependent fluorescence ratio (FI585/FI530), DV pH, after 0.5 h", "setting": "[1]; isolated trophozoites", "result": "Rapid alkalization"},
      {"measurement": "localization of membrane impermeable dye FITC-dextran (DV membrane leakage)", "setting": "[1]; microscopic analysis after 2 h", "result": "no longer showed full colocalization of the dye within the DV"},
      {"measurement": "Fold Change in IC50 vs the parental line, clone 1B2", "setting": "[2]", "result": 0.55},
      {"measurement": "Fold Change in IC50 vs the parental line, clone 1E2", "setting": "[2]", "result": 0.45},
      {"measurement": "Fold Change in IC50 vs the parental line, clone 2B3", "setting": "[2]", "result": 0.63},
      {"measurement": "Fold Change in IC50 vs the parental line, clone 3A3", "setting": "[2]", "result": 0.54}
    ]}
  ]
}
